Columns and labels:
[1] = molecular target: Serine/threonine-protein kinase 10 (Homo sapiens, UniProt O94804); assay: Inhibition of STK10 (unknown origin)
[2] = molecular target: RAC-beta serine/threonine-protein kinase (Homo sapiens, UniProt P31751); assay: Inhibition of AKT2 (unknown origin)
Chain of RAC-beta serine/threonine-protein kinase (P31751 whole entry): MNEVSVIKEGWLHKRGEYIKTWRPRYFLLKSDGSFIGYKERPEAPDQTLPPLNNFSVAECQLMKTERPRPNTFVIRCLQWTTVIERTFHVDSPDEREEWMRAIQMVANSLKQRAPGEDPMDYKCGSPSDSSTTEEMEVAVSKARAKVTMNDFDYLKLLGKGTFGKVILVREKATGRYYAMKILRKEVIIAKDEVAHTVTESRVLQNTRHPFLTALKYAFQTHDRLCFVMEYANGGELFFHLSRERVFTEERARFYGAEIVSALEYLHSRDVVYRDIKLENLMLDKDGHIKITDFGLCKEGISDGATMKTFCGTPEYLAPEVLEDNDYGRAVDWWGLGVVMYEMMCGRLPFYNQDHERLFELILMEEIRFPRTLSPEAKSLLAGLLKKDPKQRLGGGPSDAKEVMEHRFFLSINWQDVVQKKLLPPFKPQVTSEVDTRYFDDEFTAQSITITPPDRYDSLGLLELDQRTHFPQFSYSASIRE

Chain of Serine/threonine-protein kinase 10 (O94804 whole entry): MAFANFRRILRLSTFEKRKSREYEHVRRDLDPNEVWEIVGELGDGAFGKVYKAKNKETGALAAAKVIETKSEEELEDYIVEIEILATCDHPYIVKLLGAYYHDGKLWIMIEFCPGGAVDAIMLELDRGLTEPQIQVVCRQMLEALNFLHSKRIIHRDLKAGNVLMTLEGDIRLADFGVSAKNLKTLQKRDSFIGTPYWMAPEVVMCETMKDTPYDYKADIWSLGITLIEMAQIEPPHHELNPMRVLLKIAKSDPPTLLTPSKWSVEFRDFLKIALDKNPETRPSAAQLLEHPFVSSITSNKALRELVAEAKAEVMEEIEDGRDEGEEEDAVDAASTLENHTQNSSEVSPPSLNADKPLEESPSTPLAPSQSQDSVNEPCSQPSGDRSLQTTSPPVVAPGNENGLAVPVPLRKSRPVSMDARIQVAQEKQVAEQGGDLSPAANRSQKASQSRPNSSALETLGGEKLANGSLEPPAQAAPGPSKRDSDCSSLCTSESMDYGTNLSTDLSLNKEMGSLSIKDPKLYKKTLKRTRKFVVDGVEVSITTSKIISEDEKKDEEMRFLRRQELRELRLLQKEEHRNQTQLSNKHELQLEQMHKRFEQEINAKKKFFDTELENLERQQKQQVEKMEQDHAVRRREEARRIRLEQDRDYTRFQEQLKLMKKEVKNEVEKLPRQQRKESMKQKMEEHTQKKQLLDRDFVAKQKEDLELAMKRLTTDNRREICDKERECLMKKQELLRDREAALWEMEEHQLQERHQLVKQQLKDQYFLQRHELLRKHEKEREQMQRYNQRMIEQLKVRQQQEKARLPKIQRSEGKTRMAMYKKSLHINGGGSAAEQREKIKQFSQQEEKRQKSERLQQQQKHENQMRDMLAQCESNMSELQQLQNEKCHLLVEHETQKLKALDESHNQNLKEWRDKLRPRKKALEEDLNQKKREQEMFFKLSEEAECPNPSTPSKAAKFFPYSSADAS

| Compound | Ki [1] [µM] | Ki [2] [µM] |
| --- | --- | --- |
| Oc1ccc(-c2nc(-c3ccncc3)c(-c3ccc(F)cc3)[nH]2)cc1 [SB-202190] | > 10 | – |
| COc1cc(N2CCC(N3CCN(C)CC3)CC2)ccc1Nc1ncc(Cl)c(Nc2ccccc2S(=O)(=O)C(C)C)n1 [TAE-684] | – | > 10 |

From ChEMBL document CHEMBL3822417, “Predictive proteochemometric models for kinases derived from 3D protein field-based descriptors” (Medchemcomm, 2016)
